# Marks after values point to notes of the source that are not given here.
# Assays:
# [1] = Preliminary stability study, related substances by HPLC; format: physicochemical; details: 25° C./60% RH stability
# Description: Analysis of samples of sulforaphane:alpha-cyclodextrin complexes as prepared herein were carried out by HPLC according to the following method: • Column—Phenomenex Gemini C18, 5 μm, 110 Å, 250×4.6 mm; • Mobile Phase A: Water (+0.1% TFA); • Mobile Phase B: Acetonitrile (+0.1% TFA); • Flow: 1.5 mL/min; • Injection Volume: 10 μL; • Column Temperature: 25° C.; • Run Time: 40 minutes; • Sample preparation—Accurately weighed and transferred about 320 mg±30 mg of the sample to a 25-mL volumetric flask, added about 15 mL of diluent (70% water, 30% acetonitrile, 0.1% TFA) and mixed until dissolved. Diluted to volume with diluent and mixed. Transferred 3-4 mL to a syringe and filtered using a 0.45 PTFE filter, discarding the first 1-2 ml, and filtered into an autosampler vial and sealed with PTFE lined cap (prepared in duplicate); • HPLC Gradient according to Table 12
# Sulforaphane and certain related impurity peaks are summarised in Table 13, Characterisation of the impurities was carried out by LC-MS and ^1H-NMR. Relative Retention Times (RRT) are based on the HPLC method described above.
# Samples of Form 1 (batch ref. LS19-0004-S-8002), Form 3 prepared by minimally-agitated drying (Example 5.3; batch ref. 491-PAL-18) and Form 3 prepared by continuously-agitated filter drying (Example 5B—trial 5; batch ref. 00173-005) were stored at 5° C. (Table 14) and at 25° C./60% RH (Table 15) for 8 weeks in 60 ml Duma® bottles fitted with 45 mm Duma® caps and samples were analysed by HPLC according to the above method.
# [2] = TGA mass loss (water content) after exposure to ambient conditions; format: physicochemical
# Description: TGA data were collected on a TA Instruments Discovery TGA, equipped with a 25-position auto-sampler. Typically, 5-10 mg of each sample was loaded onto a pre-tared aluminium DSC pan and heated at 10° C./min from ambient temperature to 350° C. A nitrogen purge at 25 ml/min was maintained over the sample. The instrument control software was TRIOS and the data were analysed using TRIOS or Universal Analysis.
# Example 3 was also analysed by TGA at days 1, 3, 7, 9, 15 and 20 after removal from the vacuum oven and exposure to ambient conditions, as described in Table 6.
structure (smiles),measurement,setting,value
C[S+]([O-])CCCCN=C=S.OCC1OC2OC3C(CO)OC(OC4C(CO)OC(OC5C(CO)OC(OC6C(CO)OC(OC7C(CO)OC(OC1C(O)C2O)C(O)C7O)C(O)C6O)C(O)C5O)C(O)C4O)C(O)C3O (centres unmarked) [Form 1],"Related substances, HPLC RRT 0.56 (Dimer)",[1]; 8 wk,0.20 % Area
same,"Related substances, HPLC RRT 0.60 (α-CD adduct)",[1]; 8 wk,0.10 % Area
same,"Related substances, HPLC RRT 1.14 (Mixed dimer)",[1]; 8 wk,0.06 % Area
same,"Related substances, HPLC RRT 1.21 (Erysolin)",[1]; 8 wk,0.30 % Area
same,"Related substances, HPLC RRT 1.58 (Thioether dimer)",[1]; 8 wk,<0.05 % Area
same,"Related substances, Total Impurities",[1]; 8 wk,0.99 % Area
same,"Related substances, HPLC RRT 0.56 (Dimer)",[1]; Initial,0.19 % Area
same,"Related substances, HPLC RRT 0.60 (α-CD adduct)",[1]; Initial,0.06 % Area
same,"Related substances, HPLC RRT 1.14 (Mixed dimer)",[1]; Initial,<0.05 % Area
same,"Related substances, HPLC RRT 1.21 (Erysolin)",[1]; Initial,0.28 % Area
same,"Related substances, HPLC RRT 1.58 (Thioether dimer)",[1]; Initial,<0.05 % Area
same,"Related substances, Total Impurities",[1]; Initial,0.90 % Area
C[S+]([O-])CCCCN=C=S.OC[C@H]1O[C@@H]2O[C@H]3[C@H](O)[C@@H](O)[C@@H](O[C@H]4[C@H](O)[C@@H](O)[C@@H](O[C@H]5[C@H](O)[C@@H](O)[C@@H](O[C@H]6[C@H](O)[C@@H](O)[C@@H](O[C@H]7[C@H](O)[C@@H](O)[C@@H](O[C@H]1[C@H](O)[C@H]2O)O[C@@H]7CO)O[C@@H]6CO)O[C@@H]5CO)O[C@@H]4CO)O[C@@H]3CO [Form 3],TGA mass loss,"[2]; 1 day exposed to ambient conditions, average of two readings",4.0* % wt
same,TGA mass loss,[2]; 3 days exposed to ambient conditions,5.1 % wt
same,TGA mass loss,[2]; 7 days exposed to ambient conditions,5.7 % wt
same,TGA mass loss,[2]; 9 days exposed to ambient conditions,6.0 % wt
same,TGA mass loss,[2]; 15 days exposed to ambient conditions,6.4 % wt
same,TGA mass loss,[2]; 20 days exposed to ambient conditions,6.2 % wt
same,stabilised water content,[2]; after gradual absorption of atmospheric moisture,approximately 6 % wt
same,water molecules per 1:1 sulforaphane:α-cyclodextrin complex,[2]; at stabilised water content,3.5 to 4

# From US12590057B2, “Crystalline complexes” (Theracryf PLC, priority 2020, dated 2026)
